Ki and inhibition in vivo data for 16 molecules are collected here from patent US6239131A, “1,5 Benzodiazepine derivatives” (Zeria Pharmaceutical Co., Ltd., priority 1996, dated 2001).

Experiment [1] addresses T1, CCK-B receptors (Cavia porcellus, UniProt H0VZC5).
T1 construct: Cerebral cortices were removed from Hartley-strain guinea pigs, the cerebral cortices were homogenized; from tissue; host or cells: cerebral cortex of Hartley-strain guinea pigs, crude membrane pellet
T1 sequence (H0VZC5 1-426): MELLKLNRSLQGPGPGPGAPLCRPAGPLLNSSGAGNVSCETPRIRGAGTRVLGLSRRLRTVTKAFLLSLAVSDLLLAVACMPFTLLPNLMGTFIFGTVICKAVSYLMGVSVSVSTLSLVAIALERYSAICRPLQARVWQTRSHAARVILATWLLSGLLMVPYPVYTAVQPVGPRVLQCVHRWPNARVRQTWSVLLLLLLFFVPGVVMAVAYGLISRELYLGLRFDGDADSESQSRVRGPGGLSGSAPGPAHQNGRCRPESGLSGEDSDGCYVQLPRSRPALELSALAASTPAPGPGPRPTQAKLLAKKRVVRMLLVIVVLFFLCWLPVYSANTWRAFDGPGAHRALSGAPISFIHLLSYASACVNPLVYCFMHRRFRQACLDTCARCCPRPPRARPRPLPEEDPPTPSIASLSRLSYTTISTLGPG
Briefly: Measurement of Binding Affinity for CCK-B Receptors. Set-up: species or system Hartley-strain guinea pig.

In experiment [2] the target is T2, CCK-A receptors (Cavia porcellus, UniProt Q63931).
T2 construct: Pancreases were removed from Hartley-strain guinea pigs, the pancreases were homogenized; from tissue; host or cells: pancreas of Hartley-strain guinea pigs, crude membrane pellet
T2 sequence (Q63931 1-430): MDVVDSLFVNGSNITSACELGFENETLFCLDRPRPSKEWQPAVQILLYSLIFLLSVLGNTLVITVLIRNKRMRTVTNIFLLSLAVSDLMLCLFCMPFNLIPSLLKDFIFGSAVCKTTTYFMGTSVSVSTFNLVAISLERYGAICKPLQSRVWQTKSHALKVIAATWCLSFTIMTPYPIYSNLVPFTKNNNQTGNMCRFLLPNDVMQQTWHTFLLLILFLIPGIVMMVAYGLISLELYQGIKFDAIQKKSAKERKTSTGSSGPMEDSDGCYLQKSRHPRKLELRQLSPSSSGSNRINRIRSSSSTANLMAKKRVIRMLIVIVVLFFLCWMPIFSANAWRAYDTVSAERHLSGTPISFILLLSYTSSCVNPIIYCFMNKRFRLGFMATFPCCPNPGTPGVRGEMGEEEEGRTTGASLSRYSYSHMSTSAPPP
Nature of the experiment: Measurement of Binding Affinity for CCK-A Receptors. Set-up: species or system Hartley-strain guinea pig. Conditions: inhibition of specific [3H]L-364,718 (0.2 nM) binding; guinea pig pancreas; 25° C., 2 hours; pH 6.5. Here is the method:
Pancreases were removed from Hartley-strain guinea pigs, the pancreases were homogenized in 40 volumes of 10 mM PIPES buffer (pH 6.5, which hereinafter be abbreviated as "solvent") containing 1 mM EGTA, 30 mM MgCl2, 0.02% bacitracin, 0.02% soybean trypsin inhibitor and 0.3 M sucrose. The homogenate was filtrated through gauze and centrifuged at 50000×g for 10 minutes. Solvent was added to the pellet and recentrifuged as above. The final pellet thus obtained was homogenized in 40 volumes of solvent and used as the receptor preparation.
Binding assay was measured as follows. Fifty μl of [^3 H]L-364, 718 (at the final concentration of 0.2 nM) and 900 μl of the receptor preparation (50 μg protein/tube) were added to 50 μl of solvent, or L-364, 718 (1 μM) or a test compound. This mixture was incubated at 25° C. for 2 hours. After the reaction, the mixture was filtrated through Whatman GF/B filter presoaked in 0.1% BSA (bovine serum albumin). The filter was washed with 3 ml of ice-cold 10 mM PIPES buffer (pH 6.5) three times, immediately after the filtration. The filter was soaked in the ACS-II scintillation cocktail for one day and radioactivity was measured using a liquid scintillation counter. Non-specific binding was defined as the radioactivity in the presence of 1 μM L-364, 718. Specific binding was defined as the difference between total binding (used solvent without L-364, 718) and non-specific binding. lnhibitor dissociation constant (Ki) of each test compound was determined from the inhibition of specific [^3 H]L-364, 718 binding.

The subject of experiment [3] is pentagastrin-stimulated acid secretion. Nature of the experiment: Measurement of Inhibition of Pentagastrin-stimulated Acid Secretion. The following applies: intraduodenal, rat, acid output from 1 to 4 hours after administration, pentagastrin 15 μg/kg/hr. The experiment is classed as in vivo, male Sprague-Dawley (SD)-strain rats. Here is the method:
Male Sprague-Dawley (SD)-strain rats were used. Each rat was operated to ligate the pylorus, and equip with a duodenal catheter and gastric fistula under a ether anesthesia. After the operation, each rat was placed in a Bollman-type cage and continuously infused pentagastrin (15 μg/kg/hr) through the tail vein. Test compounds were suspended in 0.5% aqueous sodium carboxymethylcellulose (which hereinafter be abbreviated as "vehicle"). Vehicle or test compound was administered through the intraduodenal catheter 1 hour after the beginning of pentagastrin infusion. Acidity of the collected gastric juice was measured by an automatic titillation device. Acid output was determined by multiplying the volume by the acidity of gastric juice. […] [formula]

The mark [4] stands for this setting: inhibition of specific [3H]CCK-8 (1.0 nM) binding, guinea pig cerebral cortex, 25° C., 2 hours, pH 6.5, read-out: Ki (CCK-B receptors).

Where two headings read alike, the source gives them in different places.

In the case of `Cc1ccc2c(c1)N(CC(=O)C(C)(C)C)C(=O)C(NC(=O)Nc1cccc(C(=O)O)c1)CN2c1ccccc1` (single isomer, unassigned; (-)) [Example 97, (-)-3-[3-(1-tert-butylcarbonylmethyl-2-oxo-5-phenyl-8-methyl-1,3,4,5-tetrahydro-2H-1,5-benzodiazepin-3-yl)ureido]benzoic acid], the inhibition constant (Ki) in experiment [1] (setting [4]) is 1.59 nM; in experiment [2], 367 nM.
In experiment [2], `Cc1cccc(NC(=O)NC2CN(C(=O)C3CCCCC3)c3ccccc3N(CC(=O)c3ccccc3C)C2=O)c1` (stereo not shown) [Example 14, 1-[1-(2-toluoylmethyl)-2-oxo-5-cyclohexylcarbonyl-1,3,4,5-tetrahydro-2H-1,5-benzodiazepin-3-yl]-3-(3-methylphenyl)urea] yielded a Ki of 13.2 nM.
Regarding `Cc1ccc2c(c1)N(CC(=O)c1ccccc1C)C(=O)C(NC(=O)Nc1ccc(C)c(C(=O)O)c1)CN2C(=O)CC(C)(C)C` (stereo not shown) [Example 120, 5-[3-[1-(2-toluoylmethyl)-2-oxo-5-(3,3-dimethylbutanoyl)-8-methyl-1,3,4,5-tetrahydro-2H-1,5-benzodiazepin-3-yl]ureido]-2-methylbenzoic acid], the Ki in experiment [1] (setting [4]) is 0.75 nM; in experiment [2] it was 506 nM. For the same molecule, the inhibition in vivo at 30 mg/kg in experiment [3] worked out at 88.3%.
Take `CC(C)(C)C(=O)CN1C(=O)C(NC(=O)Nc2cccc(SCC(=O)O)c2)CN(c2ccccc2)c2ccccc21` (single isomer, unassigned; (-)) [Example 88 (-form)]: the Ki in experiment [1] (setting [4]) came to 0.11 nM; in experiment [2] it was 16.7 nM. In experiment [3], this molecule returned an inhibition in vivo at 1 mg/kg of 68.4%.
With `CC(C)(C)C(=O)CN1C(=O)C(NC(=O)Nc2cccc(SCC(=O)O)c2)CN(c2ccccc2)c2ccccc21` (stereo not shown) [Example 33, 3-[3-(1-tert-butylcarbonylmethyl-2-oxo-5-phenyl-1,3,4,5-tetrahydro-2H-1,5-benzodiazepin-3-yl)ureido]phenylthioacetic acid], the inhibition constant (Ki) in experiment [1] (setting [4]) stood at 0.14 nM; in experiment [2] it was 244 nM. Moreover, in experiment [3], the inhibition in vivo at 3 mg/kg stood at 77.2%.
As to `CC(C)(C)C(=O)CN1C(=O)C(NC(=O)Nc2cccc(C(=O)O)c2)CN(c2ccccc2)c2ccccc21` (single isomer, unassigned; (-)) [Example 70 (-form), (-)-3-[3-(1-tert-butylcarbonylmethyl-2-oxo-5-phenyl-1,3,4,5-tetrahydro-2H-1,5-benzodiazepin-3-yl)ureido]benzoic acid], the Ki in experiment [1] (setting [4]) is 0.36 nM; in experiment [2], 255 nM. Also, the inhibition in vivo at 1 mg/kg in experiment [3] worked out at 84.8%.
As for `CC(C)(C)C(=O)CN1C(=O)C(NC(=O)Nc2cccc(C(=O)O)c2)CN(c2ccccc2F)c2ccccc21` (stereo not shown) [Example 101, 3-[3-[1-tert-butylcarbonylmethyl-2-oxo-5-(2-fluorophenyl)-1,3,4,5-tetrahydro-2H-1,5-benzodiazepin-3-yl]ureido]benzoic acid], the inhibitory constant (Ki) in experiment [1] (setting [4]) was found to be 1.13 nM; in experiment [2], 472 nM. Moreover, 3 mg/kg produced 78% inhibition in vivo in experiment [3].
As for `Cc1cccc(NC(=O)N[C@@H]2N=C(c3ccccc3)c3ccccc3N(C)C2=O)c1` [L-365, 260, reference compound], the Ki in experiment [1] worked out at 24.6 nM; in experiment [2], 0.64 nM. Also, in experiment [3], testing at 30 mg/kg gave an inhibition in vivo of 46.5%.
`Cc1cccc(NC(=O)NC2CN(C(=O)C3CCCC3)c3ccccc3N(CC(=O)c3ccccc3C)C2=O)c1` (stereo not shown) [Example 28, 1-[1-(2-toluoylmethyl)-2-oxo-5-cyclopentylcarbonyl-1,3,4,5-tetrahydro-2H-1,5-benzodiazepin-3-yl]-3-(3-methylphenyl)urea] yielded a Ki in experiment [2] of 14.3 nM.
In the case of `Cc1ccc2c(c1)N(CC(=O)c1ccccc1C)C(=O)C(NC(=O)Nc1cccc(C(=O)O)c1)CN2C(=O)CC(C)(C)C` (stereo not shown) [Example 109, 3-[3-[1-(2-toluoylmethyl)-2-oxo-5-(3,3-dimethylbutanoyl)-8-methyl-1,3,4,5-tetrahydro-2H-1,5-benzodiazepin-3-yl]ureido]benzoic acid], the inhibition constant (Ki) in experiment [1] (setting [4]) came to 1.81 nM; in experiment [2] it was 346 nM. The molecule also showed an inhibition in vivo at 1 mg/kg in experiment [3] of 54%.
Turning to `CC(C)(C)C(=O)CN1C(=O)C(NC(=O)Nc2cccc(C(=O)O)c2)CN(c2ccccc2)c2ccccc21` (racemic) [Example 70 (racemate), 3-[3-(1-tert-butylcarbonylmethyl-2-oxo-5-phenyl-1,3,4,5-tetrahydro-2H-1,5-benzodiazepin-3-yl)ureido]benzoic acid], the Ki in experiment [1] (setting [4]) was 0.77 nM; in experiment [2], 303 nM. Besides, the inhibition in vivo at 3 mg/kg in experiment [3] amounted to 76.5%.
For the molecule `Cc1ccc2c(c1)N(CC(=O)c1ccccc1C)C(=O)C(NC(=O)Nc1cccc(C(=O)O)c1)CN2C(=O)C(C)(C)C` (single isomer, unassigned; (+)) [Example 13 (+form), (+)-3-[3-[1-(2-toluoylmethyl)-2-oxo-5-pivaloyl-8-methyl-1,3,4,5-tetrahydro-2H-1,5-benzodiazepin-3-yl]ureido]benzoic acid], the inhibition constant Ki in experiment [1] (setting [4]) was found to be 1.16 nM. In experiment [3], this molecule showed an inhibition in vivo at 1 mg/kg of 81.5%.
Consider `CC(C)(C)C(=O)CN1C(=O)[C@H](NC(=O)Nc2cccc(C(=O)O)c2)CN(C2CCCCC2)c2ccccc21` [Example 143, (R)-(-)-3-[3-(1-tert-butylcarbonylmethyl-2-oxo-5-cyclohexyl-1,3,4,5-tetrahydro-2H-1,5-benzodiazepin-3-yl)ureido]benzoic acid], for which, in experiment [1] (setting [4]), the Ki is 0.63 nM. For the same molecule, the inhibition in vivo at 0.1 mg/kg in experiment [3] (0.1 mg/kg) amounted to 54.6%.
For `CC(C)(C)C(=O)CN1C(=O)[C@H](NC(=O)Nc2cccc(SCC(=O)O)c2)CN(C2CCCCC2)c2ccccc21` [Example 169, (R)-(-)-3-[3-(1-tert-butylcarbonylmethyl-2-oxo-5-cyclohexyl-1,3,4,5-tetrahydro-2H-1,5-benzodiazepin-3-yl)ureido]phenylthioacetic acid], the inhibition constant (Ki) in experiment [1] (setting [4]) worked out at 0.1 nM. The molecule further had an inhibition in vivo at 1 mg/kg in experiment [3] of 75.2%.
For the molecule `CC(C)(C)C(=O)CN1C(=O)C(NC(=O)Nc2cccc(C(=O)O)c2)CN(C2CCCCC2)c2ccccc21` (stereo not shown) [Example 121, 3-[3-(1-tert-butylcarbonylmethyl-2-oxo-5-cyclohexyl-1,3,4,5-tetrahydro-2H-1,5-benzodiazepin-3-yl)ureido]benzoic acid], the Ki in experiment [1] (setting [4]) is 1.2 nM. In addition, the inhibition in vivo at 0.3 mg/kg in experiment [3] (0.3 mg/kg) was 47%.
Molecule `CC(=O)N1CC(NC(=O)Nc2cccc(C(=O)O)c2)C(=O)N(CC(=O)c2ccccc2C)c2cc(C)ccc21` (stereo not shown) [Example 111, 3-[3-[1-(2-toluoylmethyl)-2-oxo-5-acetyl-8-methyl-1,3,4,5-tetrahydro-2H-1,5-benzodiazepin-3-yl]ureido]benzoic acid] registered an inhibitory constant (Ki) in experiment [2] of 6.34 nM.
